Activity calls are given as the source filed them.
Tests used:
[1] = viability of PTEN-deleted HCT116 cells – cell-based, HCT116 PTEN knockout, dose response (AID 1047); assay type: functional;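 note: HCT116 colon tumor cells with PTEN knocked out; cells exposed to compound for 60 hours before readout; potency for loss of cell viability measured by luminescence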
[2] = HEK-293T viability loss after treatment – luminescence, T-cell screen hits, cytotoxicity control for TCR NF-kB inhibitor project, dose response (AID 489026); assay type: functional, cell-based;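 note: cells exposed to compound about 14 hours before the viability readout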
[3] = viability of HCT116 lacking mutant beta-catenin – cell-based, human colon tumor, dose response (AID 1045); assay type: functional;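 note: HCT116 colon tumor cells with beta catenin knocked out; cells exposed to compound for 60 hours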
HEK293 [4] = test: cells; assay type: functional, cell-based; conditions: Homo sapiens
HEK293 [5] = test: cells; assay type: functional, cell-based; conditions: Homo sapiens; remark: listed apart in the source
HEK293 [6] = test: NOD2 signaling inhibitors in MDP-stimulated cells, cell-based, uHTS, luminescence (AID 2001); assay type: functional; conditions: Homo sapiens
HEK293 [7] = test: inhibition of NOD1-driven NF-kB reporter – cell-based, luminescence, uHTS, primary screen (AID 1578); assay type: functional; conditions: Homo sapiens
Paired box protein Pax-8 = Paired box protein Pax-8 (Homo sapiens, UniProt Q06710); test: PAX8 transcriptional activity inhibition in RMG-I – RMG-I cells, luciferase, cherry-pick, dose response (AID 687027); assay type: functional, cell-based;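 note: luciferase reporter driven by Pax8 target thyroperoxidase promoter measured by SteadyGlo luminescence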
Paired box protein Pax-8, sequence (Q06710 whole entry): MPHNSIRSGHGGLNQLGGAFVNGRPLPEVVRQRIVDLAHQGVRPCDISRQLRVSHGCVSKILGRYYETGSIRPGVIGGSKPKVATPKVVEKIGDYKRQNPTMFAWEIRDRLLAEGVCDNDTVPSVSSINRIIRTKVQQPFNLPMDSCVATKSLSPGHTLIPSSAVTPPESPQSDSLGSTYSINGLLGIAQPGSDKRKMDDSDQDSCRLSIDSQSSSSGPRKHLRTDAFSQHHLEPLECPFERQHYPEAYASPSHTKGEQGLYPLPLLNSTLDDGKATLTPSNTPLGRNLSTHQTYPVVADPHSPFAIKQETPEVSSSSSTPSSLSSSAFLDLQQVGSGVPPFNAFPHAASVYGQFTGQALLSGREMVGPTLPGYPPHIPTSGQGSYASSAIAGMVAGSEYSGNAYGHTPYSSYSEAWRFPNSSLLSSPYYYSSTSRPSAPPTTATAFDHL

[8] = biological target: T1, Zinc finger protein mex-5 (Caenorhabditis elegans, UniProt Q9XUB2); test: potency of MEX-5 RNA-binding blockers – biochemical, C. elegans, fluorescence polarization, dose response (AID 1960)
T1 sequence (Q9XUB2 whole entry): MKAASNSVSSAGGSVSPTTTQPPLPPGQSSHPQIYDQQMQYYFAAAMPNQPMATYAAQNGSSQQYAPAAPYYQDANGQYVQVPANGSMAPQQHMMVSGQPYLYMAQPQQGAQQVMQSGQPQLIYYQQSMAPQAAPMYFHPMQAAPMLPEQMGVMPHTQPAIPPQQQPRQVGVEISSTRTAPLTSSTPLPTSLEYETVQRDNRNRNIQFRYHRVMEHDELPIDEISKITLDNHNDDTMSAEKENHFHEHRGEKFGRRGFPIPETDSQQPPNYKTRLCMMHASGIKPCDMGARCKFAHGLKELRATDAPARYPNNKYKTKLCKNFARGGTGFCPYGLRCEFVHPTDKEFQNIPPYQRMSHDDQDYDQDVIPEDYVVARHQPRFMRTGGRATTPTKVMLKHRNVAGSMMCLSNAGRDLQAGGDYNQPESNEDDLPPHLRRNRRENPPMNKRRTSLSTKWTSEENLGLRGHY

[9] = biological target: UDP-galactopyranose mutase (Mycobacterium tuberculosis, UniProt P9WIQ1); test: Inhibitors of Mycobacterium tuberculosis UDP-galactopyranose mutase (UGM) enzyme Measured in Biochemical System Using Plate Reader - 2105-02_Inhibitor_Dose_CherryPick_Activity. [Related pubchem assays (depositor defined):AID504439]
UDP-galactopyranose mutase, sequence (P9WIQ1 whole entry, the tested form may be a part): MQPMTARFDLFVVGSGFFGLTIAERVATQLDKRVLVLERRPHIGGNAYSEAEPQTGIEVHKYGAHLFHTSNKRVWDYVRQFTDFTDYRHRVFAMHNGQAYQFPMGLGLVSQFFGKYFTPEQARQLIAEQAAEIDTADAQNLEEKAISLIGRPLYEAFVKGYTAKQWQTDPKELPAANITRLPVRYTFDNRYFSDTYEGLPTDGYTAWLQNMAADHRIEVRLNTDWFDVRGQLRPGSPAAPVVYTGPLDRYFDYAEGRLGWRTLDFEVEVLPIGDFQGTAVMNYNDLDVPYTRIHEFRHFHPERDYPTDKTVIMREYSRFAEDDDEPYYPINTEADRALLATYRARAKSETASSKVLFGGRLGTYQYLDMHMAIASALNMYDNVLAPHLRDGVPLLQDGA

[10] = biological target: T2, RNA-binding protein pos-1 (Caenorhabditis elegans, UniProt G5EF15); test: disruptors of C. elegans POS-1 RNA interaction – biochemical, fluorescence polarization, dose response (AID 1964);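 note: purified POS-1 fused to maltose binding protein made in E. coli; potency of compounds blocking POS-1 binding to fluorescent RNA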
T2 sequence (G5EF15 whole entry): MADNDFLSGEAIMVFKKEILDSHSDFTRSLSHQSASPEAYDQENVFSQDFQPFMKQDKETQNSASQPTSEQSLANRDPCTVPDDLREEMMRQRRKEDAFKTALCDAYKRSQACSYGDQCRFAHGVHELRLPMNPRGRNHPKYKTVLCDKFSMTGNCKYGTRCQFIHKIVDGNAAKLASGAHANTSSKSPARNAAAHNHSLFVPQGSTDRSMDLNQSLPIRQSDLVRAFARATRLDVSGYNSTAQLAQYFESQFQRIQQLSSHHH

[11] = biological target: T3, Histone-lysine N-methyltransferase NSD2 (Homo sapiens, UniProt O96028); assay type: biochemical
T3 sequence (O96028 whole entry): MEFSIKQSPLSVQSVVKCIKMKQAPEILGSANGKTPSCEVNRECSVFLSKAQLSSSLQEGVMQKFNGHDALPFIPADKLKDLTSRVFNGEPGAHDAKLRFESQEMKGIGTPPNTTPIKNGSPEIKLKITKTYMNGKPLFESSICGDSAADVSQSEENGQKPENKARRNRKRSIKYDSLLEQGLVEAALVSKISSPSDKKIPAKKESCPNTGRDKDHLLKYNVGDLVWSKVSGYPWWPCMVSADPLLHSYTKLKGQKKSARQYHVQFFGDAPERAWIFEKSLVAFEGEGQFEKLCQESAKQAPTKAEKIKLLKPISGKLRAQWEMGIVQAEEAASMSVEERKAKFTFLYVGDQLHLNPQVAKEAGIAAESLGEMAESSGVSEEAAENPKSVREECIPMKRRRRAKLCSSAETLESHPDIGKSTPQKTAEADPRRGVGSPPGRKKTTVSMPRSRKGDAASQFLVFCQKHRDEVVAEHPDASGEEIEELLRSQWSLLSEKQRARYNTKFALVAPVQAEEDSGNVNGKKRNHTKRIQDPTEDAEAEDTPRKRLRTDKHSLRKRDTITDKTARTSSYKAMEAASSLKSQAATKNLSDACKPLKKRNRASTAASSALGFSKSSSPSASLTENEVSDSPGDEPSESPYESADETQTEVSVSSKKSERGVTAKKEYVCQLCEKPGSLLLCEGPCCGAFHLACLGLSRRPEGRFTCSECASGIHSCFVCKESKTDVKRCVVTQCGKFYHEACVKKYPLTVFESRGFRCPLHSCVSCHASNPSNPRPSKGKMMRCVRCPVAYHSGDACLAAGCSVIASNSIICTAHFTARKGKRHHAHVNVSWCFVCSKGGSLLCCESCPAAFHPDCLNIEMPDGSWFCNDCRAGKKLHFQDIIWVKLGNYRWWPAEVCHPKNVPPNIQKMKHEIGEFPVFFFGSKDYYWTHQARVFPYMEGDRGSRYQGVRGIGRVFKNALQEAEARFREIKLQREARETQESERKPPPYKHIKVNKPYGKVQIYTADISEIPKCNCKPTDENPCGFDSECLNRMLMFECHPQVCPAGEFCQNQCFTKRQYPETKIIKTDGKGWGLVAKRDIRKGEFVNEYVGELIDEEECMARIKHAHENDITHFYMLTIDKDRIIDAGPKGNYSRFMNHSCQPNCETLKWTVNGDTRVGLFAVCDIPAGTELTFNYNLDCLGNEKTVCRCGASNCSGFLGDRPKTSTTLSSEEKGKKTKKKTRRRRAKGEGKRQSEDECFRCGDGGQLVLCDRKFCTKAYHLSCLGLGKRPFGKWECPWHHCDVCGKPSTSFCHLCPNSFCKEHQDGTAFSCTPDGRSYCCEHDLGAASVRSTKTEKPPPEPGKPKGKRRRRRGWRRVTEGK

With COc1ccc(CNC(=O)c2c(C)oc3c2C(=O)c2ccccc2C3=O)cc1 the EC50 [1] was 20.1 µM (active), the IC50 [2] was 21.5 µM (inactive) and the EC50 [3] was 13.9 µM (active).
With CCSc1nsc(NC(=O)Nc2cccc(F)c2)n1 the IC50 (HEK293 [4]) was 3.7 µM (active), the IC50 (HEK293 [5]) was 10.8 µM (active) and the IC50 (HEK293 [6]) was 3.82 µM (inactive). For the same compound, the EC50 (HEK293 [7]) was 3.22 µM (active) and the AC50 (Paired box protein Pax-8) was 5.73 µM (active).
With O=[N+]([O-])c1ccc(/C=N/n2cnc3ccccc32)s1 the EC50 [8] was > 300 µM (inconclusive), the AC50 [9] was 148 µM (active) and the EC50 [10] was > 300 µM (inconclusive).
In the case of CC(C)c1ccc(S(=O)(=O)/N=C2\C=C(NS(=O)(=O)c3ccccc3)C(=O)c3ccccc32)cc1, the AC50 [11] is reported as 4 µM (active).
